Reference: patent publication US9365522B2, “Pyrazole amide derivative” (AMGEN INC., priority 2015, dated 2016)

Target: T1, human RORγ-LBD (Homo sapiens, UniProt P51449)
T1 construct: made in house; host or cells: E. coli (BL-21)
T1 sequence (P51449 262-518): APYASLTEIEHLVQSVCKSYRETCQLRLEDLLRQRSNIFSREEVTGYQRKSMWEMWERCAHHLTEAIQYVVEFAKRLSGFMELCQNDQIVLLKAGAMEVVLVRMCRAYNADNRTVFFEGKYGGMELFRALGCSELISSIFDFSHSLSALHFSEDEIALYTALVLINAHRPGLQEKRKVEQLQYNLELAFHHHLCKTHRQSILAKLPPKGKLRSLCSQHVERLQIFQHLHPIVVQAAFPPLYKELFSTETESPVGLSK
Test: ROR gamma coactivator peptide recruitment Alphascreen assay (RORγ-LBD binding to GRIP1 coactivator peptide)
Assay type: biochemical
Conditions: 5 nM human RORγ-LBD, 30 nM 7-β-hydroxycholesterol, 50 nM biotinylated GRIP1 coactivator peptide, overnight incubation at room temperature; read-out: result (pIC50, RORγ coactivator peptide recruitment Alphascreen assay) (converted)
Outline: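 Alphascreen proximity read-out after overnight room-temperature incubation, yielding pIC50 from 1-in-2 compound series (2.5% DMSO final). Mixture: 50 nM biotin-GRIP1 peptide, 30 nM 7-β-hydroxycholesterol agonist, 5 nM recombinant 6×His:Flag human RORγ-LBD (aa 262-518), 50 mM HEPES pH 7.4.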

With `CC(C)(C)C[C@H](CO)N(CCc1c(Cl)cccc1Cl)C(=O)c1cnn([C@H]2CC[C@](C)(C(=O)O)CC2)c1C(F)(F)F` [Example 605, trans-4-(4-((2-(2,6-dichlorophenyl)ethyl)((2R)-1-hydroxy-4,4-dimethyl-2-pentanyl)carbamoyl)-5-(trifluoromethyl)-1H-pyrazol-1-yl)-1-methylcyclohexanecarboxylic acid] the IC50 was 151 nM.

Work on `C[C@]1(C(=O)O)CC[C@H](n2ncc(C(=O)N(CCc3c(Cl)cncc3Cl)CC3(F)CCCC3)c2C(F)(F)F)CC1` [Example 606, trans-4-(4-((2-(3,5-dichloro-4-pyridinyl)ethyl)((1-fluorocyclopentyl)methyl)carbamoyl)-5-(trifluoromethyl)-1H-pyrazol-1-yl)-1-methylcyclohexanecarboxylic acid] yielded an IC50 of 4.47 nM.

`COc1cccc(F)c1C(=O)CN(C(=O)c1cnn([C@H]2CC[C@](C)(C(=O)O)CC2)c1C(F)(F)F)C1CCC(C)(C)CC1` [Example 607, trans-4-(4-((4,4-dimethylcyclohexyl)(2-(2-fluoro-6-methoxyphenyl)-2-oxoethyl)carbamoyl)-5-(trifluoromethyl)-1H-pyrazol-1-yl)-1-methylcyclohexanecarboxylic acid] was tested, and the IC50 was 105 nM.

With `COc1cccc(F)c1C(=O)CN(CC1(F)CCCC1)C(=O)c1cnn([C@H]2CC[C@](C)(C(=O)O)CC2)c1C(F)(F)F` [Example 608, trans-4-(4-(((1-fluorocyclopentyl)methyl)(2-(2-fluoro-6-methoxyphenyl)-2-oxoethyl)carbamoyl)-5-(trifluoromethyl)-1H-pyrazol-1-yl)-1-methylcyclohexanecarboxylic acid] the IC50 was 123 nM.

`CC1(C)[C@@H]2C[C@H](N(CC(=O)c3c(Cl)cccc3Cl)C(=O)c3cnn([C@H]4CC[C@H](C(=O)O)CC4)c3C(F)(F)F)C[C@@H]21` [Example 610, cis-4-(4-((2-(2,6-dichlorophenyl)-2-oxoethyl)((1R,3r,5S)-6,6-dimethylbicyclo[3.1.0]hex-3-yl)carbamoyl)-5-(trifluoromethyl)-1H-pyrazol-1-yl)cyclohexanecarboxylic acid] showed an IC50 of 12.3 nM.

In the case of `C[C@]1(C(=O)O)CC[C@H](n2ncc(C(=O)N(CC(=O)c3c(Cl)cccc3Cl)CC3(F)CC3)c2C(F)(F)F)CC1` [Example 611, trans-4-(4-((2-(2,6-dichlorophenyl)-2-oxoethyl)((1-fluorocyclopropyl)methyl)carbamoyl)-5-(trifluoromethyl)-1H-pyrazol-1-yl)-1-methylcyclohexanecarboxylic acid], the IC50 is reported as 6.03 nM.

`C[C@]12CC[C@](CN(CC(=O)c3c(Cl)cccc3Cl)C(=O)c3cnn([C@H]4CC[C@](C)(C(=O)O)CC4)c3C(F)(F)F)(CC1)C2` [Example 612, trans-4-(4-((2-(2,6-dichlorophenyl)-2-oxoethyl)(((1r,4r)-4-methylbicyclo[2.2.1]hept-1-yl)methyl)carbamoyl)-5-(trifluoromethyl)-1H-pyrazol-1-yl)-1-methylcyclohexanecarboxylic acid] was tested, and the IC50 was 39.8 nM.

`O=C(CN(C(=O)c1cnn([C@H]2CC[C@@H](C(=O)O)CC2)c1C(F)(F)F)C1CC2(CCC2)C1)c1c(Cl)cccc1Cl` [Example 613, cis-4-(4-((2-(2,6-dichlorophenyl)-2-oxoethyl)(spiro[3.3]hept-2-yl)carbamoyl)-5-(trifluoromethyl)-1H-pyrazol-1-yl)cyclohexanecarboxylic acid] was tested, and the IC50 was 110 nM.

`C[C@H]1CC[C@H](CN(CC(=O)c2c(Cl)cncc2Cl)C(=O)c2cnn([C@H]3CC[C@](C)(C(=O)O)CC3)c2C(F)(F)F)O1` [Example 614, trans-4-(4-((2-(3,5-dichloro-4-pyridinyl)-2-oxoethyl)(((2R,5R)-5-methyltetrahydro-2-furanyl)methyl)carbamoyl)-5-(trifluoromethyl)-1H-pyrazol-1-yl)-1-methylcyclohexanecarboxylic acid] was tested, and the IC50 was 53.7 nM.

For `C[C@]12CC[C@](CN(CC(=O)c3c(Cl)cccc3Cl)C(=O)c3cnn([C@H]4CC[C@@H](C(=O)O)CC4)c3C(F)(F)F)(CC1)C2` [Example 615, cis-4-(4-((2-(2,6-dichlorophenyl)-2-oxoethyl)(((1r,4r)-4-methylbicyclo[2.2.1]hept-1-yl)methyl)carbamoyl)-5-(trifluoromethyl)-1H-pyrazol-1-yl)cyclohexanecarboxylic acid], the IC50 was 49 nM.

For `CC1(C)CC[C@H]1N(CC(=O)c1c(Cl)cncc1Cl)C(=O)c1cnn([C@H]2CC[C@](C)(C(=O)O)CC2)c1C(F)(F)F` [Example 616, trans-4-(4-((2-(3,5-dichloro-4-pyridinyl)-2-oxoethyl)((1R)-2,2-dimethylcyclobutyl)carbamoyl)-5-(trifluoromethyl)-1H-pyrazol-1-yl)-1-methylcyclohexanecarboxylic acid], the IC50 was 33.9 nM.

With `CC1(C)CC[C@@H]1N(CC(=O)c1c(Cl)cncc1Cl)C(=O)c1cnn([C@H]2CC[C@](C)(C(=O)O)CC2)c1C(F)(F)F` [Example 617, trans-4-(4-((2-(3,5-dichloro-4-pyridinyl)-2-oxoethyl)((1S)-2,2-dimethylcyclobutyl)carbamoyl)-5-(trifluoromethyl)-1H-pyrazol-1-yl)-1-methylcyclohexanecarboxylic acid] the IC50 was 117 nM.

Work on `C=CCC1(CC=C)C[C@H](Cc2c(Cl)cncc2Cl)N(C(=O)c2cnn([C@H]3CC[C@](C)(C(=O)O)CC3)c2C(F)(F)F)C1` [Example 618, trans-4-(4-(((2R)-2-((3,5-dichloro-4-pyridinyl)methyl)-4,4-di(2-propen-1-yl)-1-pyrrolidinyl)carbonyl)-5-(trifluoromethyl)-1H-pyrazol-1-yl)-1-methylcyclohexanecarboxylic acid] yielded an IC50 of 10.5 nM.

For `CC1(C)CC[C@H]1N(CC(=O)c1c(Cl)cccc1Cl)C(=O)c1cnn([C@H]2CC[C@](C)(C(=O)O)CC2)c1C(F)(F)F` [Example 619], the IC50 was 7.76 nM.

In the case of `CC1(C)CC[C@@H]1N(CC(=O)c1c(Cl)cccc1Cl)C(=O)c1cnn([C@H]2CC[C@](C)(C(=O)O)CC2)c1C(F)(F)F` [Example 620], the IC50 is reported as 38.9 nM.

In the case of `O=C(c1cnn([C@H]2CC[C@@H](C(=O)O)CC2)c1C(F)(F)F)N(CCc1c(Cl)cncc1Cl)[C@@H]1CCC12CCC2` [Example 621, cis-4-(4-((2-(3,5-dichloro-4-pyridinyl)ethyl)((1R)-spiro[3.3]hept-1-yl)carbamoyl)-5-(trifluoromethyl)-1H-pyrazol-1-yl)cyclohexanecarboxylic acid], the IC50 is reported as 302 nM.

In the case of `CC(C)(C#N)CCN(CC(=O)c1c(Cl)cccc1Cl)C(=O)c1cnn([C@H]2CC[C@](C)(C(=O)O)CC2)c1C(F)(F)F` [Example 622, trans-4-(4-((3-cyano-3-methylbutyl)(2-(2,6-dichlorophenyl)-2-oxoethyl)carbamoyl)-5-(trifluoromethyl)-1H-pyrazol-1-yl)-1-methylcyclohexanecarboxylic acid], the IC50 is reported as 229 nM.

`O=C(CN(C(=O)c1cnn([C@H]2CC[C@@H](C(=O)O)CC2)c1C(F)(F)F)[C@H]1CC12CCCC2)c1c(Cl)cccc1Cl` [Example 624, cis-4-(4-((2-(2,6-dichlorophenyl)-2-oxoethyl)((1S)-spiro[2.4]hept-1-yl)carbamoyl)-5-(trifluoromethyl)-1H-pyrazol-1-yl)cyclohexanecarboxylic acid] was tested, and the IC50 was 102 nM.

Work on `C[C@]1(C(=O)O)CC[C@H](n2ncc(C(=O)N(CC(=O)c3c(Cl)cccc3Cl)[C@H]3CCC34CCCC4)c2C(F)(F)F)CC1` [Example 626] yielded an IC50 of 2.82 nM.

`CC1(C)C[C@H](CN(CC(=O)c2c(Cl)cccc2Cl)C(=O)c2cnn([C@H]3CC[C@](C)(C(=O)O)CC3)c2C(F)(F)F)O1` [Example 628, trans-4-(4-((2-(2,6-dichlorophenyl)-2-oxoethyl)(((2R)-4,4-dimethyl-2-oxetanyl)methyl)carbamoyl)-5-(trifluoromethyl)-1H-pyrazol-1-yl)-1-methylcyclohexanecarboxylic acid] was tested, and the IC50 was 26.9 nM.

With `CC1(C)C[C@@H](CN(CC(=O)c2c(Cl)cccc2Cl)C(=O)c2cnn([C@H]3CC[C@](C)(C(=O)O)CC3)c2C(F)(F)F)O1` [Example 629, trans-4-(4-((2-(2,6-dichlorophenyl)-2-oxoethyl)(((2S)-4,4-dimethyl-2-oxetanyl)methyl)carbamoyl)-5-(trifluoromethyl)-1H-pyrazol-1-yl)-1-methylcyclohexanecarboxylic acid] the IC50 was 45.7 nM.

`Cc1cc(Cl)c(C(=O)CN(CC2(F)CC2)C(=O)c2cnn([C@H]3CC[C@](C)(C(=O)O)CC3)c2C(F)(F)F)c(Cl)c1` [Example 630, trans-4-(4-((2-(2,6-dichloro-4-methylphenyl)-2-oxoethyl)((1-fluorocyclopropyl)methyl)carbamoyl)-5-(trifluoromethyl)-1H-pyrazol-1-yl)-1-methylcyclohexanecarboxylic acid] showed an IC50 of 3.98 nM.

With `Cc1cc(Cl)c(C(=O)CN(CC2(F)CCCC2)C(=O)c2cnn([C@H]3CC[C@@H](C(=O)O)CC3)c2C(F)(F)F)c(Cl)c1` [Example 631, cis-4-(4-((2-(2,6-dichloro-4-methylphenyl)-2-oxoethyl)((1-fluorocyclopentyl)methyl)carbamoyl)-5-(trifluoromethyl)-1H-pyrazol-1-yl)cyclohexanecarboxylic acid] the IC50 was 10 nM.

For `C[C@]1(C(=O)O)CC[C@H](n2ncc(C(=O)N(CC(=O)c3c(Cl)cccc3Cl)C3CC4(CCC4)C3)c2C(F)(F)F)CC1` [Example 632, trans-4-(4-((2-(2,6-dichlorophenyl)-2-oxoethyl)(spiro[3.3]hept-2-yl)carbamoyl)-5-(trifluoromethyl)-1H-pyrazol-1-yl)-1-methylcyclohexanecarboxylic acid], the IC50 was 3.98 nM.
